Reference: patent publication US6160004A, “C-10 carbon-substituted artemisinin-like trioxane compounds having antimalarial, antiproliferative and antitumor activities” (priority 1998, dated 2000)
Read-outs that look alike come from different tables or passages of the source.

How the values were obtained:
[1] = tested on: 786-0; assay: cells; assay type: cell-based; conditions: Homo sapiens, 786-0, renal cancer, 48 h; for GI50: read-out: Log10 GI50 (converted); for IC (TGI): read-out: Log10 TGI
[2] = tested on: HCT-116; assay: cells; assay type: cell-based; conditions: Homo sapiens, HCT-116, 48 h; for GI50: read-out: Log10 GI50 (converted)
[3] = tested on: 60 cell line panel; conditions: 60 line panel, earlier studies; cited from earlier work
[4] = tested on: HT29; assay: cells; assay type: cell-based; conditions: Homo sapiens, HT-29, HT29, colon cancer, 48 h; for GI50: read-out: Log10 GI50 (converted)
[5] = tested on: OVCAR-5; assay: cells; assay type: cell-based; conditions: Homo sapiens
[6] = tested on: EKVX; assay: NCI 60 cell line panel screening assay (SRB), EKVX; assay type: cell-based; conditions: Homo sapiens, non-small cell lung cancer, 48 h, read-out: Log10 GI50 (converted)
[7] = tested on: RXF 393; assay: cells; assay type: cell-based; conditions: Homo sapiens, RXF 393, renal cancer, 48 h; for IC (TGI): read-out: Log10 TGI
[8] = tested on: TK-10; assay: cells; assay type: cell-based; conditions: Homo sapiens, TK-10, renal cancer, 48 h; for GI50: read-out: Log10 GI50 (converted); for IC (TGI): read-out: Log10 TGI
[9] = tested on: M14; assay: NCI 60 cell line panel screening assay (SRB), M14; conditions: Homo sapiens, M14, 48 h; for CC50: read-out: Log10 LC50 (converted)
[10] = tested on: MOLT-4; assay: cells; conditions: Homo sapiens; for IC (TGI): read-out: Log10 TGI; for IC50: MOLT-4, read-out: concentration for primary growth inhibition (PG +50)
[11] = tested on: MDA-N; assay: NCI 60 cell line panel screening assay (SRB), MDA-N; assay type: cell-based; conditions: Homo sapiens, breast cancer, 48 h, read-out: Log10 GI50 (converted)
[12] = tested on: NCI-H460; assay: cells; assay type: cell-based; conditions: Homo sapiens, NCI-H460, non-small cell lung cancer, 48 h; for GI50: read-out: Log10 GI50 (converted)
[13] = tested on: ACHN; assay: NCI 60 cell line panel screening assay (SRB), ACHN; assay type: cell-based; conditions: Homo sapiens, renal cancer, 48 h; for GI50: read-out: Log10 GI50 (converted)
[14] = tested on: T-47D; assay: NCI 60 cell line panel screening assay (SRB), T-47D; conditions: Homo sapiens, T47D, 48 h
[15] = tested on: MDA-MB231/ATCC; assay: cells; assay type: cell-based; conditions: Homo sapiens, MDA-MB-231, breast cancer, 48 h
[16] = tested on: MALME-3M; assay: cells; assay type: cell-based; conditions: Homo sapiens, 48 h
[17] = tested on: MDA-MB435; assay: NCI 60 cell line panel screening assay (SRB), MDA-MB435; assay type: cell-based; conditions: Homo sapiens
[18] = tested on: MCF7/ADR-RES; assay: cells; assay type: cell-based; conditions: Homo sapiens, MCF7/ADR-RES, breast cancer, 48 h
[19] = tested on: HL-60(TB); assay: cells; assay type: cell-based; conditions: Homo sapiens
[20] = tested on: CCRF-CEM; assay: cells; assay type: cell-based; conditions: Homo sapiens, 48 h
[21] = tested on: UO-31; assay: NCI 60 cell line panel screening assay (SRB), UO-31; assay type: cell-based; conditions: Homo sapiens, UO-31, renal cancer, 48 h
[22] = tested on: SF-295; assay: cells; assay type: cell-based; conditions: Homo sapiens, SF-295, CNS cancer, 48 h
[23] = tested on: A549/ATCC; assay: NCI 60 cell line panel screening assay (SRB), A549/ATCC; assay type: cell-based; conditions: Homo sapiens, non-small cell lung cancer, 48 h, read-out: Log10 GI50 (converted)
[24] = tested on: LOX IMVI; assay: cells; assay type: cell-based; conditions: Homo sapiens, melanoma, 48 h
[25] = tested on: chloroquine-sensitive P. falciparum (NF54); assay: In vitro antimalarial activity ([3H]hypoxanthine incorporation); assay type: cell-based
[26] = tested on: SF-539; assay: cells; assay type: cell-based; conditions: Homo sapiens, SF-539, CNS cancer, 48 h
[27] = tested on: OVCAR-4; assay: cells; assay type: cell-based; conditions: Homo sapiens
[28] = tested on: DU-145; assay: cells; assay type: cell-based; conditions: Homo sapiens, DU-145, 48 h
[29] = tested on: NCI-H522; assay: cells; assay type: cell-based; conditions: Homo sapiens
[30] = tested on: SK-MEL-2; assay: cells; assay type: cell-based; conditions: Homo sapiens, SK-MEL-2, melanoma, 48 h
[31] = read-out: Log10 TGI (converted)
[32] = read-out: Log10 GI50 (converted)
[33] = read-out: Log10 LC50 (converted)

In the case of C[C@@H]1CC[C@H]2[C@@H](C)C(=O)O[C@@H]3O[C@@]4(C)CC[C@@H]1[C@]32OO4 [Artemisinin], the GI50 [1] is reported as over 100 µM, the IC (TGI) [1] is reported as over 100 µM and the GI50 [2] is reported as 100 µM. The anticancer activity [3] was “very little anticancer activity”, the GI50 [4] was over 100 µM and the GI50 ([5]; OVCAR-5, ovarian cancer, 48 h, read-out: Log10 GI50 (converted)) was over 100 µM. It also gave a GI50 [6] of over 100 µM, an IC (TGI) [7] of over 100 µM and a GI50 [8] of over 100 µM. It also gave an IC (TGI) [8] of over 100 µM, a CC50 [9] of over 100 µM and a GI50 ([10]; MOLT-4, 48 h, read-out: Log10 GI50 (converted)) of 18.6 µM. The IC (TGI) ([10]; MOLT-4, 48 h) was 100 µM, the IC50 [10] was over 100 µM and the GI50 [11] was over 100 µM. It also gave a GI50 [12] of over 100 µM, an IC (TGI) [12, 31] of over 100 µM and a GI50 [13] of over 100 µM. For the same compound, the IC (TGI) ([14]; read-out: Log10 TGI) was over 100 µM.

CC1CCC2C(C)C(CC(=O)c3cccc(C(=O)CC4OC5OC6(C)CCC7C(C)CCC(C4C)C57OO6)c3)OC3OC4(C)CCC1C32OO4 (stereo not drawn) [Dimer 39] gave a GI50 [15, 32] of over 100 µM, a CC50 [15, 33] of over 100 µM and a GI50 [1] of over 100 µM. It also gave a CC50 [1, 33] of over 100 µM, an IC (TGI) [1] of over 100 µM and an IC (TGI) ([16]; Malme-3M, read-out: Log10 TGI) of over 100 µM. For the same compound, the GI50 ([16]; MALME-3M, melanoma, read-out: Log10 GI50 (converted)) was over 100 µM, the LC50 (50% lethal concentration) ([16]; MALME-3M, melanoma, read-out: Log10 LC50 (converted)) was over 100 µM and the GI50 [2] was over 100 µM. The CC50 [2, 33] was over 100 µM, the CC50 ([17]; MDA-MB-435, 48 h, read-out: Log10 LC50 (converted)) was over 100 µM and the GI50 ([17]; MDA-MB-435, printed MDA-MBA35, breast cancer, 48 h, read-out: Log10 GI50 (converted)) was over 100 µM. For the same compound, the GI50 [18, 32] was over 100 µM, the CC50 [18, 33] was over 100 µM and the CC50 ([19]; HL-60, 48 h, read-out: Log10 LC50 (converted)) was over 100 µM. For the same compound, the GI50 ([19]; HL-60(TB), leukemia, 48 h, read-out: Log10 GI50 (converted)) was over 100 µM, the IC (TGI) ([19]; HL-60(TB), leukemia, 48 h, read-out: Log10 TGI) was over 100 µM and the GI50 [4] was over 100 µM. The CC50 [4, 33] was over 100 µM, the GI50 [20, 32] was over 100 µM and the CC50 [20, 33] was over 100 µM. The IC (TGI) ([20]; leukemia, read-out: Log10 TGI) was over 100 µM, the GI50 [21, 32] was over 100 µM and the CC50 [21, 33] was over 100 µM. It also gave an IC (TGI) ([21]; read-out: Log10 TGI) of over 100 µM, a GI50 [22, 32] of over 100 µM and a CC50 [22, 33] of over 100 µM. It also gave an IC (TGI) ([5]; OVCAR-5, 48 h, read-out: Log10 TGI) of over 100 µM, a CC50 ([5]; OVCAR-5, ovarian cancer, 48 h, read-out: Log10 LC50 (converted)) of over 100 µM and a GI50 [6] of over 100 µM. It also gave a GI50 [23] of over 100 µM, a GI50 [7, 32] of over 100 µM and a CC50 [7, 33] of over 100 µM. The IC (TGI) [7] was over 100 µM, the GI50 [24, 32] was over 100 µM and the CC50 [24, 33] was over 100 µM. For the same compound, the IC (TGI) [24, 31] was over 100 µM, the “in vitro antimalarial potency relative to artemisinin” value ([25]; P. falciparum NF54) was “more potent than artemisinin” and the IC50 ([25]; Plasmodium falciparum, chloroquine-sensitive P. falciparum NF54, in vitro) was 0.0019 µM. The GI50 [8] was over 100 µM, the CC50 [8, 33] was over 100 µM and the IC (TGI) [8] was over 100 µM. For the same compound, the GI50 [26, 32] was over 100 µM, the CC50 [26, 33] was over 100 µM and the GI50 [9, 32] was over 100 µM. It also gave a CC50 [9] of over 100 µM, an IC (TGI) ([9]; read-out: Log10 TGI) of over 100 µM and an IC (TGI) ([27]; OVCAR-4, 48 h, read-out: Log10 TGI) of over 100 µM. The GI50 ([27]; OVCAR-4, ovarian cancer, 48 h, read-out: Log10 GI50 (converted)) was over 100 µM, the CC50 ([27]; OVCAR-4, ovarian cancer, 48 h, read-out: Log10 LC50 (converted)) was over 100 µM and the CC50 ([10]; MOLT-4, 48 h, read-out: Log10 LC50 (converted)) was over 100 µM. It also gave an IC (TGI) ([10]; MOLT-4, 48 h) of over 100 µM, a CC50 ([10]; MOLT-4, read-out: concentration for cytotoxicity (PG -50)) of over 100 µM and an IC50 [10] of over 100 µM. For the same compound, the GI50 [11] was over 100 µM, the GI50 [28, 32] was over 100 µM and the CC50 [28, 33] was over 100 µM. The IC (TGI) ([28]; read-out: Log10 TGI) was over 100 µM, the CC50 ([29]; NCI-H522, 48 h, read-out: Log10 LC50 (converted)) was over 100 µM and the GI50 ([29]; NCI-H522, non-small cell lung cancer, 48 h, read-out: Log10 GI50 (converted)) was over 100 µM. The GI50 [30, 32] was over 100 µM, the CC50 [30, 33] was over 100 µM and the IC (TGI) ([30]; read-out: Log10 TGI) was over 100 µM. For the same compound, the GI50 [12] was over 100 µM, the GI50 [13] was over 100 µM and the IC (TGI) ([13]; read-out: Log10 TGI) was over 100 µM. It also gave a GI50 [14, 32] of over 100 µM and a CC50 [14, 33] of over 100 µM.
